Data taken from patent US10933141B2, “Formulations with reduced degradation of polysorbate” (Genentech, Inc., priority 2015, dated 2021).

Key:
[1] = target: T1, porcine pancreatic lipase (PPL) (Sus scrofa, UniProt P00591); assay: Enzymatic degradation of PS80 by PPL (RP-ELSD, HIAC); type: biochemical
T1 construct: purchased Sigma Aldrich Inc. (St. Louis, Mo.)
T1 sequence (P00591 1-450): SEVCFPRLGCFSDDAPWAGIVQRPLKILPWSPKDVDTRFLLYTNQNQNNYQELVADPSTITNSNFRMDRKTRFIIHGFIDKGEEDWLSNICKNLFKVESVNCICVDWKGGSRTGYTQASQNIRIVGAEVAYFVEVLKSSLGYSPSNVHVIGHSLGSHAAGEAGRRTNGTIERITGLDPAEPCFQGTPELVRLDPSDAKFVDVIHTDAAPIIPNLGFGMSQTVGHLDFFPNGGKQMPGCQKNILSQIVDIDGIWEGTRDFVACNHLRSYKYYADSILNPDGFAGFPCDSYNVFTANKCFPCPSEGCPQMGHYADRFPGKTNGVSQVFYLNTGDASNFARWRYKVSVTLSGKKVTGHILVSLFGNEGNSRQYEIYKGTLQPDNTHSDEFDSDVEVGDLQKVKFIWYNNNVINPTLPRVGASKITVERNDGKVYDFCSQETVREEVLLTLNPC
Method: (§1) Subvisible particles were measured using a HIAC 9703 particle counter equipped with an HRDL-150 detector and a 1 mL syringe. Performance of the instrument was verified with NIST-traceable 2 μm Polystyrene bead standards at 3000 counts/mL before each measurement session. The HIAC instrument was configured to a 10 mL/min flow rate, 0.1 mL tare volume, and 0.4 mL sample volume. The samples were analyzed using 4 runs of 0.4 mL sips, with the first run of each sample was discarded to prevent measurement error due to sample carryover. Results were reported as the average values for 1.4, 2, 5, 10, 15, and 25, 50 μm analysis filter sizes.
(§2) Polysorbate concentration was determined using reverse phase ultra-performance liquid chromatography using evaporative light scattering detection (RP-ELSD). Samples were analyzed using an Agilent 1100 series high performance liquid chromatography system (HPLC) fitted with a Waters Oasis MAX cartridge column (20×2.1 mm, 30 μm particle size). […] In order to quantitate the PS20 concentration, a standard curve was generated by injecting 20 μL of solutions containing between 0% w/v and 0.4% w/v PS20. For excipients which affected the migration time of PS20 through the column, PS20 standard curve solutions containing the relevant excipient were included in the analysis to facilitate accurate quantitation. […]

CALB, RLE, and LPL = assay: PS20 loss and subvisible particles after digestion, summary across CALB, LPL and RLE; type: biochemical; details: 15% (w/v) HP-β-CD vs 0%; ≥2, ≥5, ≥10, ≥25 micron; HIAC
Method: as §1, §2

PPL enzyme = target: T2, PPL enzyme (Sus scrofa, UniProt P00591); assay: PPL degradation of PS20 in mAb, BsAb and sFAb samples, PS20 by RP-ELSD; type: biochemical, porcine; details: 5% and 15% HPβCD, BsAb, sFAb 20 mg/mL and control, 0.02% PS20, 20 mM histidine acetate pH 5.5, 15 μg/mL PPL 4.5 hours
T2 construct: purchased Sigma Aldrich Inc. (St. Louis, Mo.)
T2 sequence (P00591 1-450): T1 sequence (P00591 1-450)
Method: Polysorbate concentration was determined using reverse phase ultra-performance liquid chromatography using evaporative light scattering detection (RP-ELSD). Samples were analyzed using an Agilent 1100 series high performance liquid chromatography system (HPLC) fitted with a Waters Oasis MAX cartridge column (20×2.1 mm, 30 μm particle size). The HPLC system was set up with a switching valve directing column flow-through to either waste or a Varian 380-LC evaporative light scattering detector set to 100° C. The mobile phases consisted of 2% formic acid in water (Pump A) and 2% formic acid in isopropanol (Pump B). […] In order to quantitate the PS20 concentration, a standard curve was generated by injecting 20 μL of solutions containing between 0% w/v and 0.4% w/v PS20. For excipients which affected the migration time of PS20 through the column, PS20 standard curve solutions containing the relevant excipient were included in the analysis to facilitate accurate quantitation.
The impact of various protein molecule classes (e.g., monoclonal antibody (mAb), single-Fab antibody (sFAb), and bispecific antibody(BsAb)) was assessed on the ability of cyclodextrins to decrease enzymatic PS20 degradation. […] Each sample was analyzed for PS20 concentration using high performance liquid chromatography with an inline evaporative light scattering detector. […]

Substance: 2-hydroxypropyl-β-cyclodextrin [HP-β-CD]
- subvisible particulates (SVP/mL) after PPL degradation of PS80 ([1]; 15% (w/v) HP-β-CD vs 0%, ≥1.4 to ≥25 micron, HIAC): fewer SVP/mL
- decrease in PS80 ([1]; 15% (w/v) HP-β-CD, 0.02% (w/v) PS80, pH 5.5, 15 μg/mL PPL, 5 hours, room temperature): approximately 4%
- subvisible particulates (SVP/mL) after enzymatic degradation (CALB, RLE, and LPL): fewer SVP/mL
- mitigation of catalytic PS20 degradation across molecular formats (in words) (PPL enzyme): equally effective at mitigating catalytic PS20 degradation
